# From US20090068146A1, “DIARYL UREAS AND COMBINATIONS” (priority 2005, published 2009)
row,SMILES,melting point [°C]
1,"COc1ccc(C(F)(F)F)cc1NC(=O)Nc1ccc(Oc2ccnc(C(N)=O)c2)cc1 [Entry 14, 4-[4-({N-[2-methoxy-5-(trifluoromethyl)phenyl]carbamoyl}amino)phenoxy]pyridine-2-carboxamide]",114 to 117
2,"CNC(=O)c1cc(Oc2ccc(NC(=O)Nc3cc(C(F)(F)F)ccc3OC)c(C)c2)ccn1 [Entry 16, {4-[4-({N-[2-methoxy-5-(trifluoromethyl)phenyl]carbamoyl}amino)-3-methylphenoxy](2-pyridyl)}-N-methylcarboxamide]",210 to 213
3,"CNC(=O)c1cc(Oc2ccc(NC(=O)Nc3cc(C(F)(F)F)ccc3OC)c(Cl)c2)ccn1 [Entry 17, ({2-chloro-4-[2-(N-methylcarbamoyl)(4-pyridyloxy)]phenyl}amino)-N-[2-methoxy-5-(trifluoromethyl)phenyl]carboxamide]",187 to 188
4,"CCNC(=O)c1cc(Oc2ccc(NC(=O)Nc3cc(C(F)(F)F)ccc3OC)cc2)ccn1 [Entry 19, ({4-[2-(N-ethylcarbamoyl)(4-pyridyloxy)]phenyl}amino)-N-[2-methoxy-5-(trifluoromethyl)phenyl]carboxamide]",194 to 196
5,"CNC(=O)c1cc(Oc2ccc(NC(=O)Nc3cc(C(F)(F)F)ccc3OC)cc2Cl)ccn1 [Entry 20, ({3-chloro-4-[2-(N-methylcarbamoyl)(4-pyridyloxy)]phenyl}amino)-N-[2-methoxy-5-(trifluoromethyl)phenyl]carboxamide]",214 to 216
6,"CNC(=O)c1cc(Sc2ccc(NC(=O)Nc3cc(C(F)(F)F)ccc3OC)cc2)ccn1 [Entry 27, N-[2-methoxy-5-(trifluoromethyl)phenyl]({4-[2-(N-methylcarbamoyl)(4-pyridylthio)]phenyl}amino)carboxamide]",218 to 219
7,"CNC(=O)c1cc(Oc2ccc(NC(=O)Nc3ccc(Cl)c(C(F)(F)F)c3)c(Cl)c2)ccn1 [Entry 49, {4-[3-chloro-4-({[4-chloro-3-(trifluoromethyl)phenyl]amino}carbonylamino)phenoxy](2-pyridyl)}-N-methylcarboxamide]",147 to 151
8,"CCNC(=O)c1cc(Oc2ccc(NC(=O)Nc3ccc(Cl)c(C(F)(F)F)c3)cc2)ccn1 [Entry 51, N-[4-chloro-3-(trifluoromethyl)phenyl]({4-[2-(N-ethylcarbamoyl)(4-pyridyloxy)]phenyl}amino)carboxamide]",187 to 189
9,"CNC(=O)c1cc(Oc2ccc(NC(=O)Nc3ccc(Br)c(C(F)(F)F)c3)cc2Cl)ccn1 [Entry 87, {4-[4-({[4-bromo-3-(trifluoromethyl)phenyl]amino}carbonylamino)-2-chlorophenoxy](2-pyridyl)}-N-methylcarboxamide]",217 to 219
10,"CCNC(=O)c1cc(Oc2ccc(NC(=O)Nc3ccc(Br)c(C(F)(F)F)c3)cc2)ccn1 [Entry 88, N-[4-bromo-3-(trifluoromethyl)phenyl]({4-[2-(N-ethylcarbamoyl)(4-pyridyloxy)]phenyl}amino)carboxamide]",183 to 184
11,"CNC(=O)c1cc(Oc2ccc(NC(=O)Nc3cc(C(F)(F)F)c(Cl)cc3OC)cc2)ccn1 [Entry 95, N-[4-chloro-2-methoxy-5-(trifluoromethyl)phenyl]({4-[2-(N-methylcarbamoyl)(4-pyridyloxy)]phenyl}amino)carboxamide]",140 to 144
12,"CNC(=O)c1cc(Oc2ccc(NC(=O)Nc3cc(C(F)(F)F)c(Cl)cc3OC)c(Cl)c2)ccn1 [Entry 96, N-[4-chloro-2-methoxy-5-(trifluoromethyl)phenyl]({2-chloro-4-[2-(N-methylcarbamoyl)(4-pyridyloxy)]phenyl}amino)carboxamide]",244 to 245
13,"CNC(=O)c1cc(Oc2ccc(NC(=O)Nc3cc(C(F)(F)F)c(Cl)cc3OC)cc2Cl)ccn1 [Entry 97, N-[4-chloro-2-methoxy-5-(trifluoromethyl)phenyl]({3-chloro-4-[2-(N-methylcarbamoyl)(4-pyridyloxy)]phenyl}amino)carboxamide]",220 to 221
14,"CCNC(=O)c1cc(Oc2ccc(NC(=O)Nc3cc(C(F)(F)F)c(Cl)cc3OC)cc2)ccn1 [Entry 99, N-[4-chloro-2-methoxy-5-(trifluoromethyl)phenyl]({4-[2-(N-ethylcarbamoyl)(4-pyridyloxy)]phenyl}amino)carboxamide]",180 to 181
